Values belong to the compound of their own block, whether it stands above or below them.
Assays:
Ba/F3 FIG-ROS cells [1] = molecular target: T1, Ba/F3 FIG-ROS cells (Homo sapiens, UniProt P08922); assay: Cell viability (MTS) assay, Ba/F3 FIG-ROS; type: cell-based; conditions: read-out: IC50 (50% growth inhibitory concentration); Ba/F3 FIG-ROS cells, 72 hours, MTS
T1 construct: fused on or other part: GFP is co-expressed from an IRES in pMIG and is not fused; Q9HD26 (Golgi-associated PDZ and coiled-coil motif-containing protein)
T1 sequence (P08922 whole entry, change not shown, the tested form may be a part): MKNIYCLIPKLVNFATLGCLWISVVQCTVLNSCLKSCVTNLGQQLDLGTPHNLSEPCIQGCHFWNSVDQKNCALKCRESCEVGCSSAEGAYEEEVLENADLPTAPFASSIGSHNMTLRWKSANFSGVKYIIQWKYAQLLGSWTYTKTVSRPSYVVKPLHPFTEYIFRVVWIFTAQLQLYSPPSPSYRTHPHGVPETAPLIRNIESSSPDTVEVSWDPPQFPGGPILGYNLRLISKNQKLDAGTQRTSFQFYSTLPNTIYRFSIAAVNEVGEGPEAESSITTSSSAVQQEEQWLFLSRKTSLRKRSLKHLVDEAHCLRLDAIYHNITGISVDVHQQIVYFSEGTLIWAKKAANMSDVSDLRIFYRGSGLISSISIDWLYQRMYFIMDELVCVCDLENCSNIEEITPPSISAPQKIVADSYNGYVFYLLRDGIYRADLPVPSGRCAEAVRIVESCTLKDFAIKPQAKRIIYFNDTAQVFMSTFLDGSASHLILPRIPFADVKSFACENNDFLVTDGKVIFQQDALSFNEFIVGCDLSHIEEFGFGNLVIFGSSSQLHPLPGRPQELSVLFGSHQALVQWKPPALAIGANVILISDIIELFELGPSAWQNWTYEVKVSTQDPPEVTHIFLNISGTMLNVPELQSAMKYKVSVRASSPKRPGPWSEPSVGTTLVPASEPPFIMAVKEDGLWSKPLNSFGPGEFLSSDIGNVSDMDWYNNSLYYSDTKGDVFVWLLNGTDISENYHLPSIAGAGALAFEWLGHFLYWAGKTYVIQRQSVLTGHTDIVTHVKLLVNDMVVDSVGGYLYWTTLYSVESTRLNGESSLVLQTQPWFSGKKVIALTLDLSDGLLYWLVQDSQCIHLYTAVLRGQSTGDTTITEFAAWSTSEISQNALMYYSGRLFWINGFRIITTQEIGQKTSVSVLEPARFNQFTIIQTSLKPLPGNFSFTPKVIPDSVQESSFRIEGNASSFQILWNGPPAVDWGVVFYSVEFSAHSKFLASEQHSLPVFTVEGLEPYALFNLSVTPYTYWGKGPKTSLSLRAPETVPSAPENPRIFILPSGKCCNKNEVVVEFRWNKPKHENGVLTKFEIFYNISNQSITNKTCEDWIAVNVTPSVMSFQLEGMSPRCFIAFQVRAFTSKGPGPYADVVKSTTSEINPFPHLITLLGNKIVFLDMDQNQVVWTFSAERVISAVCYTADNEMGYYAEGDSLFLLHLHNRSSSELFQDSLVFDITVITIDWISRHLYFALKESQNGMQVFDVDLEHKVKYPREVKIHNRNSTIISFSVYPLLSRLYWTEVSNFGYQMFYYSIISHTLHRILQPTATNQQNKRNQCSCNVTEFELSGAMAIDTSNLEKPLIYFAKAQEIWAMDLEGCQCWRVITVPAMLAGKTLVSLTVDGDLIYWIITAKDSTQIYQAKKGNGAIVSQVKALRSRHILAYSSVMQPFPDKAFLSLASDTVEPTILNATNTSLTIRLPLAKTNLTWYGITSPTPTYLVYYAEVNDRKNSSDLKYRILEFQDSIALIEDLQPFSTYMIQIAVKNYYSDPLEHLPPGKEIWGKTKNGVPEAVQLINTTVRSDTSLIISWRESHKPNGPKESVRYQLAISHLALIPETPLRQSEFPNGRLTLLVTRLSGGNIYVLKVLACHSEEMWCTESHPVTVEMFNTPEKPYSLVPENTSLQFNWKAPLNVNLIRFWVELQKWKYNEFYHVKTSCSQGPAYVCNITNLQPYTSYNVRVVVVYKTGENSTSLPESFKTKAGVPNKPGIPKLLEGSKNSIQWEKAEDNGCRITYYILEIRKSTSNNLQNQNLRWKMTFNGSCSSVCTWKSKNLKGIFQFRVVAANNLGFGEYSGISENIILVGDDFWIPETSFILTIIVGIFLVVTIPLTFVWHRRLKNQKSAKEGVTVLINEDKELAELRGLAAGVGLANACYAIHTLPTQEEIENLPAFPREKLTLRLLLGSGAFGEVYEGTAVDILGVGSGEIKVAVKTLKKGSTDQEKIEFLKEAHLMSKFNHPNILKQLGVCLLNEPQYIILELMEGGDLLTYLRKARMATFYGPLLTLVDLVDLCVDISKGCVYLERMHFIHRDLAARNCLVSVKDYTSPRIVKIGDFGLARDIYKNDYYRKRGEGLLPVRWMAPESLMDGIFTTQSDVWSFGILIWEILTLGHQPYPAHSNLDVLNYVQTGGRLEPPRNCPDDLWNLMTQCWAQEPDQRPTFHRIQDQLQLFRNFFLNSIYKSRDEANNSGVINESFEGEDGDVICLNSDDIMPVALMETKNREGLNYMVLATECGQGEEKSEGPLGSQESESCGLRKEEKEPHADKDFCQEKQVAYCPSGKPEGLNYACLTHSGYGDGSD
Excerpt: Ba/F3 cell lines were maintained at densities of 0.5×10^6 to 1.5×10^6 per ml of media. FIG-ROS and SLC-ROS Ba/F3 lines were created by infecting the parental Ba/F3 with retrovirus expressing either human FIG-ROS-S (indicated FIG-ROS herein) or SLC-ROS-S (indicated SLC-ROS herein). Stable transfectant lines were sorted for GFP expression on a FACS Aria® flow cytometer. Cells were counted daily using Guava ViaCount® reagent and Guava Personal Cell Analysis® flow cytometer. […] Early passage NIH3T3 cells were infected with retrovirus expressing either FIG-ROS or SLC-ROS and sorted for GFP expression as described above for Ba/F3 cells. […] This media is referred to as RPMI-10% FBS herein.
The FIG-ROS-S (FIG-ROS) fusion protein has been reported in non-small cell lung cancers (NSCLC), glioblastomas, and cholangiocarcinomas.

Ba/F3 parental cells = assay: Cell viability (MTS) assay, Ba/F3 parental; type: cell-based; conditions: Mus musculus, BaF3; Ba/F3 parental cells; read-out: IC50 (insensitive/resistant up to stated concentration)
Procedure: (§1) The parental Ba/F3 cell line was cultured in RPMI 1640 medium with 10% FBS, L-glutamine, penicillin/streptomycin and 15% WEHI-conditioned media. Ba/F3 cell lines were maintained at densities of 0.5×10^6 to 1.5×10^6 per ml of media. FIG-ROS and SLC-ROS Ba/F3 lines were created by infecting the parental Ba/F3 with retrovirus expressing either human FIG-ROS-S (indicated FIG-ROS herein) or SLC-ROS-S (indicated SLC-ROS herein). Stable transfectant lines were sorted for GFP expression on a FACS Aria® flow cytometer. Cells were counted daily using Guava ViaCount® reagent and Guava Personal Cell Analysis® flow cytometer. […] Early passage NIH3T3 cells were infected with retrovirus expressing either FIG-ROS or SLC-ROS and sorted for GFP expression as described above for Ba/F3 cells. HCC78 cells were cultured in RPMI 1640 medium with 10% FBS, L-glutamine, and penicillin/streptomycin. This media is referred to as RPMI-10% FBS herein.
[…]. The Ba/F3 parental line was also tested. (O'Dwyer M E and Druker B J, Lancet Oncology 1, 207-211 (2000); Walters D K et al, Cancer Cell 10, 65-75 (2006); and Heukamp L C et al, Science Translational Medicine 4, 141ra191 (2012); […].

Ba/F3 FIG-ROS cells [2] = molecular target: T1, Ba/F3 FIG-ROS cells; assay: Apoptosis induction (Annexin V / 7-AAD), Ba/F3 FIG-ROS; type: cell-based; conditions: 15 nM, 48 hours
Procedure: (§2) FIG. 5A is a set of three bar graphs depicting the induction of apoptosis in Ba/F3 FIG-ROS, Ba/F3 SLC-ROS and Ba/F3 ALK F1174L cells after 48 hours of treatment with the indicated doses of the indicated compounds. The number of cells that were Annexin V and 7-AAD positive after inhibitor treatment was normalized to number of cells staining positive with these markers with vehicle treatment (basal). A minimum of 2000 cells were counted per condition. Rate of apoptosis is shown as fold over basal. Basal apoptosis in Ba/F3 FIG-ROS, Ba/F3 SLC-ROS and Ba/F3 ALK F1174 cells was 3.6%, 2.8% and 1.2% respectively.

Ba/F3 SLC-ROS cells = molecular target: T2, Ba/F3 SLC-ROS cells (Homo sapiens, UniProt P08922); assay: Apoptosis induction (Annexin V / 7-AAD), Ba/F3 SLC-ROS; type: cell-based; conditions: 15 nM, 48 hours
T2 construct: SLC-ROS-S (SLC-ROS) was cloned from cDNA made from HCC78 cells; fused on or other part: GFP is co-expressed from an IRES in pMIG and is not fused; O95436 (Sodium-dependent phosphate transport protein 2B)
T2 sequence (P08922 whole entry, change not shown, the tested form may be a part): as above
Procedure: as §2

FIG-ROS = FIG-ROS (Homo sapiens, UniProt P08922); assay: Immunoblot of Ba/F3 FIG-ROS lysates; type: cell-based; set-up: expressed in transfected cells; host or cells: Ba/F3 (A14), retroviral pMSCV-IRES-GFP; the other entry of the earlier key: GOPC (Q9HD26, Golgi-associated PDZ and coiled-coil motif-containing protein); conditions: Ba/F3 FIG-ROS cells, increasing amounts, immunoblot FIG. 1C
Chain of FIG-ROS (P08922 with tags, fused parts or gaps): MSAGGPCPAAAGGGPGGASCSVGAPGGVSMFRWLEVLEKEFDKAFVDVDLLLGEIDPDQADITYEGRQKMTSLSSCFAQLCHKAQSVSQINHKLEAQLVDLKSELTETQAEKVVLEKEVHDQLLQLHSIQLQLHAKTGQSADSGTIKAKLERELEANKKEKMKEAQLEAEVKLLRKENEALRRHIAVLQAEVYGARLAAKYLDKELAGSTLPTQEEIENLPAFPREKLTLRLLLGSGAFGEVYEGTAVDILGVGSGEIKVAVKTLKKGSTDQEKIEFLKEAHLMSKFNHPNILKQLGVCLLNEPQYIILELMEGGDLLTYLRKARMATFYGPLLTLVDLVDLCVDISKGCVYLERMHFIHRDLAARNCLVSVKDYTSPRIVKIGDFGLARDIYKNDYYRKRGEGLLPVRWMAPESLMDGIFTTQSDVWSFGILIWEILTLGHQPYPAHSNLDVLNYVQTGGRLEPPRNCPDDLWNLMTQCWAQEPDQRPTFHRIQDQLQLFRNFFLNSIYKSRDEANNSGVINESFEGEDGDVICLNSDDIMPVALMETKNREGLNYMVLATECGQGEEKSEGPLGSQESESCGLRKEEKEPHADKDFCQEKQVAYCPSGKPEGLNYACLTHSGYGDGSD
Procedure: (§3) FIG. 1C is an image of an immunoblot of lysates of Ba/F3 FIG-ROS and Ba/F3 SLC-ROS and the indicated downstream effectors after treatment with the indicated compounds. Images shown are representative of three independent experiments.
(§4) Ba/F3 FIG-ROS, Ba/F3 SLC-ROS, HCC78 and mCC cell lines were treated with the indicated concentration of inhibitors for 1-2 hours. […] The protein content of the cell lysates was determined and lysates were either used for immunoprecipitation where indicated or extracted with SDS Sample buffer for 15 minutes at 80° C. Proteins were transferred to Immobilon-FL membranes and immunoblotted with antibodies specific for phospho-ROS1 (Cell Signaling Technology (CST) #3078), total ROS1 (CST #3266), phopsho-Shp2 (CST #3751), total Shpt (CST #3752), phospho-Stat3 (CST #9145), total Stat3 (CST #4904), phospho-Erk1/2 (CST #9101), total Erk2 (Santa Cruz #SC-1647), phospho-S6 (CST #4858), total S6 (CST #2216), phospho-Src (CST #2105), total Src (CST #2110), α-tubulin (Sigma T6199), or β-actin (Sigma A1978) as indicated. Images of the blots were generated by the LI-COR Odyssey® imaging system, following the manufacturer's protocol for immunoblot detection with use of IR-dye conjugated secondary antibodies.

SLC-ROS = SLC-ROS (Homo sapiens, UniProt P08922); assay: Immunoblot of Ba/F3 SLC-ROS lysates; type: cell-based; set-up: SLC34A2 N-terminal portion, fusion partner; expressed in transfected cells; host or cells: Ba/F3 (A15), retroviral pMIG; the other entry of the earlier key: SLC34A2 (O95436, Sodium-dependent phosphate transport protein 2B); conditions: Ba/F3 SLC-ROS cells, increasing amounts, immunoblot FIG. 1C
Chain of SLC-ROS (P08922 with tags, fused parts or gaps): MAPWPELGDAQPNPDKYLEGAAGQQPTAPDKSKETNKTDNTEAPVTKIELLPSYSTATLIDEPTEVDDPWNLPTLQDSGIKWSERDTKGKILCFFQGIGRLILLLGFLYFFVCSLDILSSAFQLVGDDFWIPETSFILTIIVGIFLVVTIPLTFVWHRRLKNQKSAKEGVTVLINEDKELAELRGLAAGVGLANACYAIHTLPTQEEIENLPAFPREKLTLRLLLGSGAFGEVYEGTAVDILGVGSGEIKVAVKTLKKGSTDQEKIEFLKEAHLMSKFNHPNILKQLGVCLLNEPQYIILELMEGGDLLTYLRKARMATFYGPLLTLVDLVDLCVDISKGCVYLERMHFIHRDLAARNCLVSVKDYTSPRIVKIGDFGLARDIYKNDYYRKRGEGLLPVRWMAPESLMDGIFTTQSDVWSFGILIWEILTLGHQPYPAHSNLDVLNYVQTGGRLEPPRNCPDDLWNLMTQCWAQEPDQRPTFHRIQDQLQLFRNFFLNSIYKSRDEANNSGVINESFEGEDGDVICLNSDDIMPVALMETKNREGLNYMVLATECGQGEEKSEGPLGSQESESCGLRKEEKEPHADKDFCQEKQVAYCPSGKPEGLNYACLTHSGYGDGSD
Procedure: as §3, §4

HCC78 cells = assay: Cell viability (MTS) assay, HCC78; type: cell-based, human; conditions: FIG. 6C
Procedure: as §1

PC9 cells = assay: Cell viability assay, PC9; type: cell-based, human; conditions: PC9 cells (activated EGFR), FIG. 6B
Procedure: (§5) IC50 was determined from non-linear regression curve fit analysis of the dose response curves.

HCC4011 cells = assay: Cell viability assay, HCC4011; type: cell-based, human; conditions: HCC4011 cells (activated EGFR), FIG. 6B
Procedure: as §5

apoptosis induction (Ba/F3 FIG-ROS cells [2]): induced apoptosis
apoptosis induction (Ba/F3 SLC-ROS cells): induced apoptosis
autophosphorylation of FIG-ROS and ROS1-driven signaling (phospho-Shp2, phospho-ERK1/2) (FIG-ROS): dose dependent decrease
autophosphorylation of SLC-ROS and ROS1-driven signaling (phospho-Shp2, phospho-ERK1/2) (SLC-ROS): dose dependent decrease
Structure (SMILES): Cn1c2ccccc2c2c3c(c4c5ccccc5n(CCC#N)c4c21)CNC3=O [Gö6976, 12-(2-cyanoethyl)-6,7,12,13-tetrahydro-13-methyl-5-oxo-5H-indolo(2,3-a)pyrrolo(3,4-c)-carbazole]
GI50 (Ba/F3 FIG-ROS cells [1]): 1.4 nM
IC50 (Ba/F3 parental cells): > 2000 nM

Structure (SMILES): Cn1cc(-c2ccc3nnc(C(F)(F)c4ccc5ncccc5c4)n3n2)cn1 [JNJ38877605]
HCC78 cell growth sensitivity to MET inhibitors (HCC78 cells): resistant

Structure (SMILES): C#Cc1cccc(Nc2ncnc3cc(OCCOC)c(OCCOC)cc23)c1 [erlotinib]
sensitivity of cell growth (PC9 cells): sensitive
sensitivity of cell growth (HCC4011 cells): sensitive

Source: patent US20140243332A1, “METHODS OF TREATING CANCERS CHARACTERIZED BY ABERRENT ROS1 ACTIVITY” (Oregon Health & Science University, priority 2013, published 2014)
